Values quoted from earlier work as cited in PMC10479830, “Nucleoside analogs NM107 and AT-527 are antiviral against rubella virus” (PNAS Nexus, 2023).

Tested on: HCV
Design: method as in PMID 16248033
Conditions: reason for discontinuation; cited from earlier work

Compound: CC(C)[C@H](N)C(=O)O[C@@H]1[C@@H](CO)O[C@@H](n2ccc(N)nc2=O)[C@]1(C)O [NM283]
- toxicity in clinical trials: gastrointestinal toxicity
